Test results as given in ChEMBL document CHEMBL5505983, “Design, synthesis, and molecular modeling studies of novel 2-quinolone-1,2,3-triazole-α-aminophosphonates hybrids as dual antiviral and antibacterial agents” (Eur J Med Chem, 2024).
In brackets after ≈: the same amount, converted by molar mass.

What was measured:
[1] = system: Escherichia coli; test: Ratio of MBC to MIC for Escherichia coli CIP 53154; format: functional
[2] = system: Escherichia coli; test: Bactericidal activity against Escherichia coli CIP 53154; format: functional
[3] = system: Escherichia coli; test: Antibacterial activity against Escherichia coli CIP 53154 assessed as reduction in bacterial growth by micro-broth dilution method; format: functional
[4] = Cytotoxicity against African green monkey Vero A cells; format: toxicity, cell-based; settings: chlorocebus sabaeus
[5] = system: Enterovirus A71; test: Antiviral activity against human EV71 infected in human RD cells assessed as inhibition of cytopathic effect by microscopy based analysis; format: functional, organism-based; settings: Enterovirus A
[6] = Cytotoxicity against human Huh-7 cells; format: toxicity, cell-based
[7] = system: Pseudomonas aeruginosa; test: Antibacterial activity against Pseudomonas aeruginosa CIP A22 assessed as reduction in bacterial growth by micro-broth dilution method; format: functional
[8] = system: Staphylococcus aureus; test: Ratio of MBC to MIC for Staphylococcus aureus CIP 54127; format: functional
[9] = Selectivity index, ratio of CC50 for African green monkey Vero A cells to IC50 for CHIKV infected in African green monkey Vero A cells; format: toxicity; settings: read-out: Ratio CC50/IC50
[10] = Cytotoxicity against human HeLa-RH cells; format: toxicity, cell-based
[11] = Cytotoxicity against African green monkey Vero E6 cells; format: toxicity, cell-based, Vero C1008; settings: chlorocebus sabaeus
[12] = system: Human rhinovirus sp.; test: Antiviral activity against Human rhinovirus B14 infected in human HeLa-RH cells assessed as inhibition of cytopathic effect by microscopy based analysis; format: functional, organism-based
[13] = system: Staphylococcus aureus; test: Bactericidal activity against Staphylococcus aureus CIP 54127; format: functional
[14] = system: Staphylococcus aureus; test: Antibacterial activity against Staphylococcus aureus CIP 54127 assessed as reduction in bacterial growth by micro-broth dilution method; format: functional
[15] = system: Enterococcus faecalis; test: Antibacterial activity against Enterococcus faecalis assessed as reduction in bacterial growth by micro-broth dilution method; format: functional
[16] = system: Human rhinovirus sp.; test: Antiviral activity against Human rhinovirus A2 infected in human HeLa-RH cells assessed as inhibition of cytopathic effect by microscopy based analysis; format: functional, organism-based
[17] = system: Pseudomonas aeruginosa; test: Ratio of MBC to MIC for Pseudomonas aeruginosa CIP A22; format: functional
[18] = Cytotoxicity against human RD cells; format: toxicity, cell-based
[19] = system: Pseudomonas aeruginosa; test: Bactericidal activity against Pseudomonas aeruginosa CIP A22; format: functional
[20] = system: Yellow fever virus; test: Antiviral activity against Yellow fever virus infected in human Huh-7 cells assessed as inhibition of cytopathic effect by microscopy based analysis; format: functional, organism-based
[21] = system: Chikungunya virus; test: Antiviral activity against CHIKV infected in African green monkey Vero A cells assessed as inhibition of cytopathic effect by microscopy based analysis; format: functional, organism-based
[22] = system: Enterococcus faecalis; test: Ratio of MBC to MIC for Enterococcus faecalis; format: functional
[23] = system: Enterococcus faecalis; test: Bactericidal activity against Enterococcus faecalis; format: functional
[24] = system: Zika virus; test: Antiviral activity against Zika virus infected in african green monkey Vero E6 cells assessed as inhibition of cytopathic effect by microscopy based analysis; format: functional, organism-based; settings: Vero C1008

SMILES	Ratio [1]	MBC [2] [µM]	MIC [3] [µM]	CC50 [4] [µM]	IC50 [5] [µM]	CC50 [6] [µM]	MIC [7] [µM]	Ratio [8]	CC50 [10] [µM]	CC50 [11] [µM]	IC50 [12] [µM]	MBC [13] [µM]	MIC [14] [µM]	MIC [15] [µM]	IC50 [16] [µM]	Ratio [17]	CC50 [18] [µM]	MBC [19] [µM]	Ratio [22]	MBC [23] [µM]	other results
Cc1cc(=O)n(Cc2cn(Cc3ccc(O)c(C=O)c3)nn2)c2ccccc12	1.93	830 (≈ 311 µg/mL)	430 (≈ 161 µg/mL)	> 100	> 33.3	37.5	26700 (≈ 10000 µg/mL)	1	11.4	57.5	> 100	210 (≈ 78.6 µg/mL)	210 (≈ 78.6 µg/mL)	110 (≈ 41.2 µg/mL)	> 1.23	2	27.1	26700 (≈ 10000 µg/mL)	1	110 (≈ 41.2 µg/mL)	selectivity ratio [9]: > 1.05; IC50 [20]: > 100 µM; IC50 [21]: 95.7 µM; IC50 [24]: > 100 µM
CCOP(=O)(OCC)C(Nc1ccccc1Cl)c1cc(Cn2cc(Cn3c(=O)cc(C)c4ccccc43)nn2)ccc1O (centres undefined)	1	260 (≈ 162 µg/mL)	260 (≈ 162 µg/mL)	24.3	> 100	30.5	1010 (≈ 628 µg/mL)	1	52.1	> 33.3	> 100	500 (≈ 311 µg/mL)	500 (≈ 311 µg/mL)	60 (≈ 37.3 µg/mL)	> 1.23	1	> 100	1010 (≈ 628 µg/mL)	1	60 (≈ 37.3 µg/mL)	IC50 [20]: > 100 µM; IC50 [21]: > 33.3 µM; IC50 [24]: > 100 µM
CC1(C)S[C@@H]2[C@H](NC(=O)[C@H](N)c3ccccc3)C(=O)N2[C@H]1C(=O)O [AMPICILLIN]	2.04	530 (≈ 185 µg/mL)	260 (≈ 90.8 µg/mL)				530 (≈ 185 µg/mL)	1				270 (≈ 94.3 µg/mL)	270 (≈ 94.3 µg/mL)	260 (≈ 90.8 µg/mL)		1.96		530 (≈ 185 µg/mL)	1	260 (≈ 90.8 µg/mL)	
CCOP(=O)(OCC)C(Nc1ccccc1OC)c1cc(Cn2cc(Cn3c(=O)cc(C)c4cc(F)ccc43)nn2)ccc1O (centres undefined)	1	1970 (≈ 1250 µg/mL)	1970 (≈ 1250 µg/mL)	40.8	> 100	88	1970 (≈ 1250 µg/mL)	1.96	> 100	> 33.3	> 100	490 (≈ 311 µg/mL)	250 (≈ 159 µg/mL)	60 (≈ 38.1 µg/mL)	> 1.23	1.99	> 100	1970 (≈ 1250 µg/mL)	1	60 (≈ 38.1 µg/mL)	IC50 [20]: > 100 µM; IC50 [21]: > 100 µM; IC50 [24]: > 100 µM
CCOP(=O)(OCC)C(Nc1ccccc1OC)c1cc(Cn2cc(Cn3c(=O)cc(C)c4cc(Br)ccc43)nn2)ccc1O (centres undefined)	1.99	1790 (≈ 1250 µg/mL)	900 (≈ 627 µg/mL)	> 100	> 100	51.2	3590 (≈ 2500 µg/mL)	1.96	> 33.3	> 100	> 100	450 (≈ 313 µg/mL)	230 (≈ 160 µg/mL)	110 (≈ 76.6 µg/mL)	> 0.41	2.01	> 33.3	3590 (≈ 2500 µg/mL)	1	110 (≈ 76.6 µg/mL)	selectivity ratio [9]: > 1.23; IC50 [20]: > 100 µM; IC50 [21]: 81.6 µM; IC50 [24]: > 100 µM
CCOP(=O)(OCC)C(Nc1ccccc1)c1cc(Cn2cc(Cn3c(=O)cc(C)c4cc(F)ccc43)nn2)ccc1O (centres undefined)	1	1040 (≈ 630 µg/mL)	1040 (≈ 630 µg/mL)	> 100	> 100	46.2	8260 (≈ 5000 µg/mL)	2.04	> 100	> 33.3	> 100	1040 (≈ 630 µg/mL)	510 (≈ 309 µg/mL)	2060 (≈ 1250 µg/mL)	> 1.23	2	> 100	8260 (≈ 5000 µg/mL)	1	2060 (≈ 1250 µg/mL)	IC50 [20]: > 100 µM; IC50 [21]: > 100 µM; IC50 [24]: > 100 µM
